Test: Phase 1b study, investigator's assessment of clinical response (EOT, PTE)
Format: in vivo, human
Protocol: b) Investigator's Assessment of Clinical Response Investigator's Assessment of Clinical Response at EOT
The EOT visit was conducted on Day 6. This evaluation was also conducted for any prematurely withdrawn subject. The following assessments were performed at the EOT visit: subject assessment of UTI signs and symptoms severity, urine culture and leukocyte esterase dipstick test or microscopic examination, physical examination, vital signs, 12-lead ECG, hematology and serum chemistry, serum pregnancy test (all subjects) and investigator's assessment of clinical response. Subjects, who discontinued study treatment before completing the study, and those who prematurely withdrew from the study for any reason, were scheduled for a visit as soon as possible, at which time all of the assessments listed for the EOT visit were performed.
It was determined whether the subject met the criteria of 1 of the following clinical outcomes: • Clinical Success: Resolution of signs and symptoms at the EOT visit and no use of additional antimicrobial therapy. • Clinical Failure: No apparent response to therapy, persistence of signs and symptoms of infection at the EOT visit, or use of additional antimicrobial therapy for the current infection. • Indeterminate: EOT visit not completed. Investigator's Assessment of Clinical Response at PTE
The PTE visit was conducted 5 to 9 days after the subject's last day of therapy. This evaluation was also conducted for any prematurely withdrawn subject. The following assessments were performed at the PTE visit: urine culture and leukocyte esterase dipstick test or microscopic examination, physical examination, vital signs, hematology, serum chemistry, serum pregnancy test (all subjects), and investigator's assessment of clinical response.
It was determined whether the subject met the criteria of 1 of the following clinical outcomes: • Clinical Success: Resolution of signs and symptoms at the PTE visit and no use of additional antimicrobial therapy. • Clinical Failure: No apparent response to therapy, persistence of signs and symptoms of infection, or reappearance of signs and symptoms at or before the PTE visit, or use of additional antimicrobial therapy for the current infection. • Indeterminate: PTE visit not completed.
Investigator's assessment of clinical response at the EOT and PTE visits with outcomes of Clinical Success, Clinical Failure or Indeterminate as defined above. Subjects who were a clinical failure at an earlier time point were considered a clinical failure at subsequent time points. The number and percentage of subjects with an Investigator's assessment of success, failure and indeterminate were presented for EOT and PTE visits by treatment group.

With CN(C)c1cc(CNCC(C)(C)C)c(O)c2c1C[C@H]1C[C@H]3[C@H](N(C)C)C(O)=C(C(N)=O)C(=O)[C@@]3(O)C(O)=C1C2=O [Compound 1, 9-[(2,2-dimethyl-propylamino)-methyl]-minocycline] as the compound, how does the “Reason for Clinical Failure: Persistence of signs and symptoms of infection at or before current visit” value (“Reason for Clinical Failure: Persistence” for short) (EOT, IV_PO300) read?
The value was 0 (0.0) n (%).

What about the “Clinical Failure” value (EOT, IV_PO300 (N = 11)) of the same compound?
The value was 0 (0.0) n (%).

What about the “Clinical Success” value (EOT, IV_PO300 (N = 11)) of the same compound?
The value was 10 (90.9) n (%).

And the Indeterminate (EOT, IV_PO300 (N = 11))?
Its Indeterminate is 1 (9.1) n (%).

And the “Reason for Clinical Failure: Persistence” value (EOT, PO300)?
Its value is 0 (0.0) n (%).

What about the “Clinical Failure” value (EOT, PO300 (N = 10)) of the same compound?
Its value is 0 (0.0) n (%).

What about the “Clinical Success” value (EOT, PO300 (N = 10)) of the same compound?
Its value is 10 (100.0) n (%).

What about the Indeterminate (EOT, PO300 (N = 10)) of the same compound?
Its Indeterminate is 0 (0.0) n (%).

What about the “Reason for Clinical Failure: Persistence” value (EOT, PO450) of the same compound?
Its value is 1 (100.0) n (%).

And the “Clinical Failure” value (EOT, PO450 (N = 10))?
The value was 1 (10.0) n (%).

What about the “Clinical Success” value (EOT, PO450 (N = 10)) of the same compound?
The value was 9 (90.0) n (%).

And the Indeterminate (EOT, PO450 (N = 10))?
Its Indeterminate is 0 (0.0) n (%).

What about the “Reason for Clinical Failure: Persistence” value (PTE, IV_PO300) of the same compound?
Its value is 0 (0.0) n (%).

What about the “Reason for Clinical Failure: Use of additional systemic antimicrobial therapy for the current infection” value (“Reason for Clinical Failure: Use” below) (PTE, IV_PO300) of the same compound?
Its value is 0 (0.0) n (%).

And the “Clinical Failure” value (PTE, IV_PO300 (N = 11))?
Its value is 0 (0.0) n (%).

And the “Clinical Success” value (PTE, IV_PO300 (N = 11))?
Its value is 11 (100.0) n (%).

And the Indeterminate (PTE, IV_PO300 (N = 11))?
Its Indeterminate is 0 (0.0) n (%).

And the “Reason for Clinical Failure: Persistence” value (PTE, PO300)?
Its value is 2 (100.0) n (%).

What about the “Reason for Clinical Failure: Use” value (PTE, PO300) of the same compound?
Its value is 0 (0.0) n (%).

And the “Clinical Failure” value (PTE, PO300 (N = 10))?
The value was 2 (20.0) n (%).

And the “Clinical Success” value (PTE, PO300 (N = 10))?
Its value is 7 (70.0) n (%).

What about the Indeterminate (PTE, PO300 (N = 10)) of the same compound?
The Indeterminate was 0 (0.0) n (%).

What about the “Reason for Clinical Failure: Persistence” value (PTE, PO450) of the same compound?
Its value is 1 (50.0) n (%).

What about the “Reason for Clinical Failure: Use” value (PTE, PO450) of the same compound?
Its value is 1 (50.0) n (%).

And the “Clinical Failure” value (PTE, PO450 (N = 10))?
The value was 2 (20.0) n (%).

What about the “Clinical Success” value (PTE, PO450 (N = 10)) of the same compound?
The value was 8 (80.0) n (%).

And the Indeterminate (PTE, PO450 (N = 10))?
Its Indeterminate is 0 (0.0) n (%).
